Patent EP4813463A2, “TYK2 INHIBITORS AND COMPOSITIONS AND METHODS THEREOF” (Lynk Pharmaceuticals Co. Ltd., priority 2023, dated 2024)
Like-named read-outs stand apart in the source and are kept apart here.

Key:
Caco-2 cell lines = test: Caco-2 cell permeability; type: in vitro ADME; settings: Caco-2; result in words
Experimental: Compounds permeability was evaluated using Caco-2 cell lines. HBSS buffer was used as transfer buffer. Appropriate dosing and receiver solutions were applied to the donor and receiver chambers to initiate the transport assay in apical to basolateral (A to B) or basolateral to apical (B to A) directions. Compounds were tested at 10.0 µM in the absence of p-gp inhibitor bidirectionally in duplicates. After incubation at 37°C for 90 mins, donor and receiver samples were analyzed by LC-MS/MS. The intestinal absorption potential was assessed using Papp value and efflux ratio.

[1] = Mice colon pharmacokinetic studies; type: in vivo; settings: mouse, female Balb/c mice, oral gavage, 10 mg/kg; for half-life: read-out: Plasma T1/2 (converted)
Experimental: Pharmacokinetic studies were investigated using female Balb/c mice to determine plasma and colon exposure of tested compounds. Compounds were administrated via oral gavage in a formulation of 0.5% Methocel (A4M) + 0.1% Tween80 in water to Balb/c mic. Animals were anesthetized at the designated time points, plasma, colon tissue and colonic contents samples were collected. Tissue samples were homogenized using MeOH : PBS(1:1). All samples were analyzed by LC-MS/MS.

TYK2 pathway = test: IFN-γ release in NK92 cells stimulated by IL-12 (ELISA); type: cell-based; settings: IL-12 2.5ng/mL stimulation 15hrs, IFN-γ in supernatant by ELISA
Experimental: IFN-γ Release in NK92 Cells Stimulated by IL-12
Purpose: To evaluate the inhibition activity of TYK2 inhibitors in NK92 cells on TYK2 pathway through ELISA method.
Procedure: 1) Seeding NK92 cells into 96-well plate, cell density is 1.5E5 cells/well, 100uL/well; 2)Add prepared test articles into indicated wells, 50uL/well, and continue incubate for 1h, at 37°C; 3) After compound treatment, add 50uL/well IL-12 into indicated wells, final concentration of IL-12 is 2.5ng/mL; 4)Incubate cytokine stimulated cells at 37°C for another 15hrs in CO2 incubator; 5) After cytokine stimulation, transfer culture supernatant into a new plate and centrifuge for 5min at 350x g, and detect IFN-γ concentration in the supernatant with ELISA kit; 6) Data analysis with GrapdPad Prism6.0 software. Table 5. IC50 Values of Exemplary Compounds on TYK2 Pathway

[2] = Pharmacokinetic study in rats; type: in vivo; settings: rat, plasma, Sprague-Dawley rats, solution
Experimental: Pharmacokinetic profiles of test articles were evaluated in fasted mouse, Sprague-Dawley rats and Beagle dogs. After dosing, blood samples were collected at each time point. For IV injection group, time points were set at 5, 15, 30 min, and then 1, 2, 4, 8 and 24 hours after dosing. For oral gavage group,#time points were set at 15, 30 min, and then 1, 2, 4, 8, and 24 hours. Blood was collected into appropriately labeled tubes containing K2EDTA as the anticoagulant. Plasma was obtained within 1 hours of blood collection by centrifugation at 8000×g and 4 °C for 6 minutes, and then stored at -20 °C until analyzed by LC/MS/MS for quantification. PK parameter values, including, but not necessarily limited to, the maximum plasma concentrations (Cmax), the time to reach the maximum concentrations (Tmax), and the area under the plasma concentration vs. time curve (AUC) from time zero to 24-hour (AUC0-24h) were determined using WinNonlin program. Table 17. […]

[3] = Brain pharmacokinetic studies in rats; type: in vivo, Sprague-Dawley rats
Experimental: Pharmacokinetic profiles of test articles were evaluated in fasted Sprague-Dawley rats. Different kinds of formulations were designed to ensure test articles fully dissolved and wouldn't precipitate in 1:10 SGF or FaSSIF dilution. Typically, Rats were dosed with 3 mg/kg and 5 mg/kg by intravenous injection and oral gavage, respectively. The animal was restrained manually at the designated time points, approximately 150 µL of blood sample was collected via jugular vein for serial bleeding into K2EDTA tubes. The blood samples were maintained in wet ice first and centrifuged to obtain plasma (2000g, 4°C, 5 min) within 30 minutes post sampling. Anesthetizing the rat with the Isoflurane vaporizer to 2%~3% and place its back on the operation table. Spread the animal limbs and pin the limbs on the operation table. Make a cut along the sternum about 4cm long, low enough to expose the sternum's end. Expose the heart and use a 25-gauge needle connected with a 20 mL syringe filled with 20 mL of cold saline to pierce the left ventricle. Maintain the placement of the needle, and slowly push the syringe plunger to wash the brain with saline. The perfusion will be finished within about 2 min and then take the brain out of the body carefully without damaging the tissue. Dry the tissue on filtrate paper, which should be placed on ice, and then weigh the brain tissue and store at -70 °C and analyzed by LC/MS/MS for quantification. PK parameter values, including, but not necessarily limited to, the maximum plasma concentrations (Cmax), and the area under the plasma concentration vs. time curve (AUC) from time zero to 24-hour (AUC0-24h) were determined using WinNonlin program. Table 13. Systemic Pharmacokinetic Parameters in Sprague-Dawley Rats

[4] = Brain pharmacokinetic studies in dogs; type: in vivo, Beagle dogs; settings: for AUC: AUC0-4h
Experimental: Pharmacokinetic profiles of test articles were evaluated in Beagle dogs. Different kinds of formulations were designed to ensure test articles fully dissolved and wouldn't precipitate in 1:10 SGF or FaSSIF dilution. The animal was restrained manually at the designated time points, approximately 500 µL of blood sample was collected via cephalic vein into K2EDTA tubes. The blood samples were maintained in wet ice first and centrifuged to obtain plasma (2000g, 4°C, 5 min) within 15 minutes post sampling. The animal was euthanized with pure […] inhalation. Shave the hair on the back of head and neck, and clean the skin of the area with iodine and 75% ethanol. Inject about 4-5 L saline from carotid artery for perfusion. Brain was collected after the perfusion fluid (saline) was gradually clarified. Dry the tissue on filtrate paper on ice, and then weigh the brain tissue and store at -70°C for later analysis. […] Table 15. Systemic Pharmacokinetic Parameters in Beagle Dogs

[5] = plasma, read-out: Plasma AUC0-24
[6] = colon tissue, read-out: Colon AUC0-24
[7] = colonic contents, read-out: Colon content AUC0-24

COC(=O)c1cnc(NC(=O)[C@@H]2C[C@@H]2F)cc1Nc1nn(C)c2ccc(C(O)C(F)(F)F)c(OC)c12 (single isomer, unassigned) [Example 122A, Methyl 6-((1S,2S)-2-fluorocyclopropane-1-carboxamido)-4-((4-methoxy-1-methyl-5-((S*)-2,2,2-trifluoro-1-hydroxyethyl)-1H-indazol-3-yl)amino) nicotinate]
efflux ratio compared with the amide compounds 21,23,25,33,49A and BMS986165 (Caco-2 cell lines): lower efflux ratio numbers

[2H]C([2H])([2H])NC(=O)c1cnc(NC(=O)C2CC2)cc1Nc1cnn2ccc([C@H](O)C(F)(F)F)c(OC)c12 [Example 7A, (S)-6-(cyclopropanecarboxamido)-4-((4-methoxy-5-(2,2,2-trifluoro-1-hydroxyethyl)pyrazolo[1,5-a]pyridin-3-yl)amino)-N-(methyl-d3)nicotinamide]
Cmax ([1]; plasma): 426 ng/mL
Tmax ([1]; plasma): 0.25 h
AUC(0-t) [1, 5]: 0.599 µg·h/mL
half-life ([1]; plasma): 1.75 h
AUC(0-t) [1, 6]: 45.8 µg·h/mL
AUC(0-t) [1, 7]: 1430 µg·h/mL
IC50 (TYK2 pathway): 9.1 nM
AUC ([2]; intravenous, 1 mg/kg): 0.317 µg·h/mL
Vd ([2]; intravenous, 1 mg/kg): 3.3 L/kg
clearance ([2]; intravenous, 1 mg/kg): 53.2 mL/min/kg
half-life ([2]; intravenous, 1 mg/kg): 0.84 h
AUC ([2]; oral, 10 mg/kg): 0.258 µg·h/mL
Cmax ([2]; oral, 10 mg/kg): 31.3 ng/mL
bioavailability ([2]; oral, 10 mg/kg): 8.1%
half-life ([2]; oral, 10 mg/kg): 4.91 h

[2H]C([2H])([2H])NC(=O)c1cnc(Nc2ccn(C)n2)cc1Nc1cnn2ccc([C@H](O)C(F)(F)F)c(OC)c12 [Example 21, (S)-4-((4-methoxy-5-(2,2,2-trifluoro-1-hydroxyethyl)pyrazolo[1,5-a]pyridin-3-yl)amino)-N-(methyl-d3)-6-((1-methyl-1H-pyrazol-3-yl)amino)nicotinamide]
IC50 (TYK2 pathway): 14.5 nM

[2H]C([2H])([2H])NC(=O)c1cnc(Nc2cc(C)nc(C)n2)cc1Nc1cnn2ccc([C@H](O)C(F)(F)F)c(OC)c12 [Example 25, (S)-6-((2,6-Dimethylpyrimidin-4-yl)amino)-4-((4-methoxy-5-(2,2,2-trifluoro-1-hydroxyethyl)pyrazolo[1,5-a]pyridin-3-yl)amino)-N-(methyl-d3)nicotinamide]
IC50 (TYK2 pathway): 7.18 nM

[2H]C([2H])([2H])NC(=O)c1cnc(NC(=O)C2CC2)cc1Nc1cnn2ccc([C@H](OC)C(F)(F)F)c(OC)c12 [Example 27, (S)-6-(cyclopropanecarboxamido)-4-((4-methoxy-5-(2,2,2-trifluoro-1-methoxyethyl)pyrazolo[1,5-a]pyridin-3-yl)amino)-N-(methyl-d3)nicotinamide]
IC50 (TYK2 pathway): 6.02 nM

[2H]C([2H])([2H])NC(=O)c1nnc(NC(=O)C2CC2)cc1Nc1cnn2ccc([C@H](O)C(F)(F)F)c(OC)c12 [Example 30, (S)-6-(cyclopropanecarboxamido)-4-((4-methoxy-5-(2,2,2-trifluoro-1-hydroxyethyl)pyrazolo[1,5-a]pyridin-3-yl)amino)-N-(methyl-d3)pyridazine-3-carboxamide]
IC50 (TYK2 pathway): 6.72 nM

COC(=O)c1cnc(NC(=O)C2CC2)cc1Nc1nn(C)c2ccc([C@H](O)C(F)(F)F)c(OC)c12 [Example 48A, Methyl (S)-6-(cyclopropanecarboxamido)-4-((4-methoxy-1-methyl-5-(2,2,2-trifluoro-1-hydroxyethyl)-1H-indazol-3-yl)amino)nicotinate]
half-life ([3]; Sprague-Dawley, rat, brain, rats, iv, 3 mg/kg, solution): 2.04 h
Kp ([3]; Sprague-Dawley, rat, brain, rats, iv, 3 mg/kg, solution, read-out: Brain AUC/Systemic AUC): 0.19
half-life ([3]; Sprague-Dawley, rat, systemic (plasma), rats, iv, 3 mg/kg, solution): 1.62 h
AUC ([3]; Sprague-Dawley, rat, systemic (plasma), rats, iv, 3 mg/kg, solution, read-out: AUC): 1.53 µg·h/mL
AUC ([3]; brain, rats, iv, 3 mg/kg, solution): 288 ng·h/g
brain exposure in Rats ([3]; result in words): good brain exposure
efflux ratio compared with the amide compounds 21,23,25,33,49A and BMS986165 (Caco-2 cell lines): lower efflux ratio numbers

[2H]C([2H])([2H])NC(=O)c1cnc(NC(=O)C2CC2)cc1Nc1nn(C)c2ccc([C@H](O)C(F)(F)F)c(OC)c12 [Example 49A, (S)-6-(cyclopropanecarboxamido)-4-((4-methoxy-1-methyl-5-(2,2,2-trifluoro-1-hydroxyethyl)-1H-indazol-3-yl)amino)-N-(methyl-d3)nicotinamide]
Cmax ([1]; plasma): 1340 ng/mL
Tmax ([1]; plasma): 0.25 h
AUC(0-t) [1, 5]: 1.22 µg·h/mL
half-life ([1]; plasma): 1.03 h
AUC(0-t) [1, 6]: 21.3 µg·h/mL
AUC(0-t) [1, 7]: 1590 µg·h/mL
AUC ([2]; intravenous, 2 mg/kg): 0.904 µg·h/mL
Vd ([2]; intravenous, 2 mg/kg): 2.2 L/kg
clearance ([2]; intravenous, 2 mg/kg): 38.2 mL/min/kg
half-life ([2]; intravenous, 2 mg/kg): 1.04 h
AUC ([2]; oral, 10 mg/kg): 0.418 µg·h/mL
Cmax ([2]; oral, 10 mg/kg): 74.2 ng/mL
bioavailability ([2]; oral, 10 mg/kg): 9.25%
half-life ([2]; oral, 10 mg/kg): 3.14 h

[2H]C([2H])([2H])O[C@@H](c1ccc2c(c(Nc3cc(NC(=O)C4CC4)ncc3C(=O)OC)nn2C)c1OC)C(F)(F)F [Example 50B, Methyl (S)-6-(cyclopropanecarboxamido)-4-((4-methoxy-1-methyl-5-(2,2,2-trifluoro-1-(methoxy-d3)ethyl)-1H-indazol-3-yl)amino)nicotinate]
AUC ([4]; brain, Beagle dogs, iv, 2 mg/kg, solution): 1856 ng·h/g
Kp ([4]; dog, brain, Beagle dogs, iv, 2 mg/kg, solution, read-out: Brain AUC/Systemic AUC): 1.36
AUC ([4]; dog, systemic (plasma), Beagle dogs, iv, 2 mg/kg, solution, read-out: AUC): 1.37 µg·h/mL
brain exposure in Dogs ([4]; result in words): good brain exposure

[2H]C([2H])([2H])NC(=O)c1cnc(NC(=O)C2CC2)cc1Nc1nn(C)c2ccc([C@H](OC([2H])([2H])[2H])C(F)(F)F)c(OC)c12 [Example 55A, (S)-6-(cyclopropanecarboxamido)-4-((4-methoxy-1-methyl-5-(2,2,2-trifluoro-1-(methoxy-d3)ethyl)-1H-indazol-3-yl)amino)-N-(methyl-d3)nicotinamide]
AUC ([2]; intravenous, 3 mg/kg): 3.65 µg·h/mL
Vd ([2]; intravenous, 3 mg/kg): 2.05 L/kg
clearance ([2]; intravenous, 3 mg/kg): 13.6 mL/min/kg
half-life ([2]; intravenous, 3 mg/kg): 2.56 h
AUC ([2]; oral, 5 mg/kg): 2.95 µg·h/mL
Cmax ([2]; oral, 5 mg/kg): 409 ng/mL
bioavailability ([2]; oral, 5 mg/kg): 48.6%
half-life ([2]; oral, 5 mg/kg): 2.67 h
